Data from patent publication US10745352B2, “Dual function molecules for histone deacetylase inhibition and ataxia telangiectasia mutated activation and methods of use thereof” (Shuttle Pharmaceuticals, Inc., priority 2015, dated 2020).

What was measured:
[1] = test system: pan-HDACs; experiment: Pan-HDAC assay (Fluor-de-Lys fluorometric kit, HeLa Nuclear Extract); type: biochemical; settings: values are average EC50, read-out: EC50 against pan-HDACs
Protocol: Certain compounds of the invention were tested in a pan-HDAC assay to determine the ability of such compounds to inhibit HDAC protein. Specifically, the compounds tested included: N-(6-(hydroxyamino)-6-oxohexyl)-3-methyl-1H-indole-2-carboxamide (SP-1-161) (FIG. 8A); N^1-hydroxy-N^6-(2-(2-methyl-1H-indol-3-yl)ethyl)octanediamide (SP-1-163) (FIG. 8A); (S)—N-(6-(hydroxyamino)-6-oxohexyl)-1-tosylindoline-2-carboxamide (SP-1-169) (FIG. 8B); and (S)-1-((5-(dimethylamino)naphthalene-1-yl)sulfonyl)-N-(6-(hydroxyamino)-6-oxoheyl)indoline-carboxamide (SP-1-171) (FIG. 8B).
The Pan HDAC assay was performed as follows:
Materials: Enzo Fluor-de-Lys HDAC fluorometric activity assay kit; 360 nm excitation 460 nm emission Plate Reader; Disposable pipettes; Pipet-aid; Pipette tips; Micro-pipetter; DMSO; Sterile micro-tubes and conical tubes; and Micro-centrifuge.
Test compounds and control preparation: All test compounds' stock solutions were made in 100% DMSO. Test compound dilutions were made in HDAC Assay buffer with a final concentration of DMSO less than or equal to 1%. Vehicle control was HDAC Assay buffer with 1% DMSO.
The reagents for the assay were prepared as follows:
1. All kit components were defrosted and these, and all dilutions described below, were kept on ice until use. All undiluted kit components are stable for several hours on ice.
2. A sufficient amount of HeLa Nuclear Extract (BML-KI140) or other HDAC source diluted in Assay Buffer (BML-KI143) was prepared to provide for the assays that were performed (# of wells×15 μl). A 30-fold dilution of the HeLa Extract means that 15 μl contains 0.5 μl of the undiluted Extract, an appropriate amount to use per well.
3. Dilution(s) of Trichostatin A and/or Test Inhibitors were prepared in Assay Buffer (BML-KI143). Since 10 μl were used per well, and since the final volume of the HDAC reaction was 50 μl, these inhibitor dilutions were 5× their final concentration.
4. Dilution(s) of the Fluor de Lys® Substrate (BML-KI104; 50 mM) were prepared in Assay Buffer (BML-KI143) that were 2× the desired final concentration(s). For inhibitor screening, substrate concentrations at or below the Km are recommended. Twenty-five μL were used per well. Initial dilutions of 25-fold or greater in Assay Buffer (2.0 mM or less) yielded stable solutions (see NOTE on freezing and thawing below). Rapid mixing and dilution into room temperature buffer helped to prevent precipitation at high substrate concentration. NOTE: Freezing/thawing of Fluor de Lys® Substrate solutions in Assay Buffer may cause precipitation of the Substrate. Dilute only amount necessary for one day's experiment.
5. Shortly before use (<30 min.), sufficient Fluor de Lys® Developer was prepared for the assays to be performed (50 μl per well). […]

[2] = test system: breast cancer cells (MCF7 cells); experiment: MTT cytotoxicity assay, breast cancer cells; type: cell-based; settings: Homo sapiens, cell line not named in the sentence (FIG. 9: MCF7 and 184A1)
Protocol: Certain compounds of the invention were tested in both an MTT cytotoxicity assay and clonogenic cytotoxicity assay against breast cancer cells (MCF7 cells) and normal breast tissue cells (184A1 cells) to determine the cytotoxic effect of such cells as a function of concentration.
Specifically, the compounds tested included: N-(6-(hydroxyamino)-6-oxohexyl)-3-methyl-1H-indole-2-carboxamide (SP-1-161); -hydroxy-N^6-(2-(2-methyl-1H-indol-3-yl)ethyl)octanediamide (SP-1-163); (S)—N-(6-(hydroxyamino)-6-oxohexyl)-1-tosylindoline-2-carboxamide (SP-1-169); and (S)-1-((5-(dimethylamino)naphthalene-1-yl)sulfonyl)-N-(6-(hydroxyamino)-6-oxoheyl)indoline-carboxamide (SP-1-171).

[3] = test system: cervical cancer cells (CasKi); experiment: Radiation clonogenic survival, cervical cancer cells; type: cell-based
Protocol: Logarithmically growing cells were seeded into T-25 flasks at various densities to yield approximately 50-100 colonies/flask. After incubation for 24 h at 37° C., cells were treated or not with the compound at the IC50 concentration for 24 h followed by sham or irradiation at room temperature using a Mark-30 irradiator with a 137-Cs source at a fixed dose rate of 2.27 Gy/min. After 10-14 days, cells were fixed and stained with crystal violet, and colonies of more than 50 cells were counted. The surviving fractions of the treated cells were normalized to the plating efficiencies of untreated controls. Radiation survival curves were fitted by computer to the single-hit, multitarget and the linear-quadratic models.
FIGS. 17-19 illustrate the effects of drugs on radiation cologenetic survivals. Cells were pretreated with drug 24 hours prior to exposure to graded doses of gamma radiation. Compounds SP-1-161 and SP-1-303 were tested in a clonogenic survival study with cervical cancer cells (CasKi) with a protocol similar to that described in Example 12. The radiation sensitivity of cells is defined by the terminal slope of the radiation survival curve, which is referred to as D0. The steeper the slope, the smaller the value of D0 and thus the more radiation sensitive the respective cells. Alternatively, a less steep slope results in a larger D0 and a more resistant radiation response. […]

SMILES: Cc1c(C(=O)NCCCCCC(=O)NO)[nH]c2ccccc12 [SP-1-161, N-(6-(hydroxyamino)-6-oxohexyl)-3-methyl-1H-indole-2-carboxamide]
- EC50 [1]: 29.7 nM
- IC50 [2]: 416 nM
- D0 (terminal slope of the radiation survival curve) ([3]; CasKi cells pretreated with drug 24 hours before graded doses of gamma radiation, DMSO control D0=2.4): 1.6
- radiation sensitization of CasKi cells (decrease of D0 with respect to control) ([3]; CasKi cells, drug 24 hours before gamma radiation): sensitized CasKi cells
